Experimental data: patent publication US11541061B2, “Neuroblastoma treatment with taurolidine hydrolysis products” (CorMedix Inc., priority 2016, dated 2023)

Assays:
SK-N-AS tumors = assay: SK-N-AS neuroblastoma tumors implanted subcutaneously in mice (FIGS. 3-8); type: in vivo, CB57 SCID mice
IMR5 tumors = assay: IMR5 neuroblastoma tumors implanted subcutaneously in mice (FIGS. 3-6); type: in vivo; settings: IMR5 tumors implanted subcutaneously in CB57 SCID mice
Text: The efficacy observed with taurolidine treatment of IMR5 cell implants in vivo (FIGS. 3-6), despite IRM5's relatively high IC50 in vitro (FIG. 2), supports the conclusion that the hydrolysis products of taurolidine may have independent anti-neoplastic activity. […] Since it is known that taurolidine metabolizes to taurolidine hydrolysis products in vivo, this would support the conclusion that the hydrolysis products of taurolidine may have significant anti-neoplastic activity against neuroblastoma cells. In fact, it may be that the hydrolysis products of taurolidine have higher efficacy against neuroblastoma cells than taurolidine which has not been hydrolyzed.

[1] = 5 grams intravenously by 20 minute infusion; cited from earlier work
neuroblastoma cell lines = assay: in vitro cell viability of neuroblastoma cell lines (FIG. 2); type: cell-based
Text: (§1) The IC50 values are between 80-140 microMolar for neuroblastoma cell lines, and 200 microMolar for normal fibroblasts (see FIG. 2).

leukemia cell lines = assay: in vitro sensitivity of leukemia cell lines compared to healthy lymphocytes (FIG. 1); type: cell-based; settings: leukemia cell lines vs healthy lymphocytes
healthy fibroblasts (BJ) = assay: in vitro cell viability of healthy fibroblasts (FIG. 2); type: cell-based; settings: Fibroblast, normal fibroblasts
Text: as §1

[2] = mean pharmacokinetic parameters of taurinamide and taurultam (FIGS. 10, 11); settings: in vivo; mean pharmacokinetic parameter, weight-based AUC
Procedure: FIG. 10 is a chart showing the mean pharmacokinetic parameters of taurinamide; and
FIG. 11 is a chart showing the mean pharmacokinetic parameters of taurultam.
The taurinamide is given with a dosage range of from 5 mg/kg to 280 mg/kg, with optimal range between 5 mg/kg and 60 mg/kg, from once daily through weekly, for an effective period of time based on individual patient response.
The taurultam is given with a dosage range of from 5 mg/kg to 280 mg/kg, with optimal range between 5 mg/kg and 60 mg/kg, from once daily through weekly, for an effective period of time based on individual patient response.

| Compound | efficacy in tumors in vivo (SK-N-AS tumors; SK-N-AS tumors implanted subcutaneously in CB57 SCID mice) | overall survival (SK-N-AS tumors; mice implanted with SK-N-AS tumor, vs control) | tumor size (SK-N-AS tumors; mice with SK-N-AS cell line tumors, vs control) | efficacy in tumors in vivo (IMR5 tumors) | concentration of taurolidine in healthy volunteers [1] | sensitivity to decrease in viability compared to healthy fibroblasts (neuroblastoma cell lines; neuroblastoma cell lines vs healthy fibroblasts (BJ), in vitro) | IC50 (neuroblastoma cell lines; neuroblastoma cell lines, cell viability in vitro, FIG. 2) [µM] | concentration at which in vitro efficacy is seen (neuroblastoma cell lines; neuroblastoma cell lines, highest two concentrations tested, FIG. 2) | sensitivity compared to healthy lymphocytes (leukemia cell lines) | IC50 (healthy fibroblasts (BJ)) [µM] | AUC(0-inf) [2] [µg·h/mL] |
| --- | --- | --- | --- | --- | --- | --- | --- | --- | --- | --- | --- |
| O=S1(=O)CCN(CN2CCS(=O)(=O)NC2)CN1 [taurolidine] | measurable efficacy | not statistically different | Statistically significant decreases | efficacy | NO measurable concentration | more sensitive | 80 to 140 | above 40 microMolar | more sensitive | 200 | – |
| NCCS(N)(=O)=O [Taurinamide, taurinamide] | – | – | – | – | – | – | – | – | – | – | 313 |
